PMC7170901, “Design and efficient synthesis of pyrazoline and isoxazole bridged indole C-glycoside hybrids as potential anticancer agents” (Scientific Reports, 2020)

Tests used:
[1] = MTT cell viability assay in normal MCF-10A cells; type: cell-based; details: human, MCF-10A normal mammary epithelial cells, read-out: Cell Viability (%) ± SD
Source text: (§1) MDA-MB-231 represents a specific subtype, known as the triple negative breast cancer (TNBC). […] We also included normal mammary epithelial MCF-10A cells in our experiments to confirm if the growth-inhibitory activities of the selected compounds are truly cancer cell-specific. […] Furthermore, none of these compounds did have any growth inhibitory activity against normal breast epithelial cell (MCF-10A). The IC50 values for these compounds against MDA-MB-231 cells (Fig. 2) are also included in Table 4 for comparison. Cell viability assay was performed as per standard protocols. After 72 h of cell incubation in the presence or absence of each compound, cell viability was evaluated by using MTT ((3-(4,5-dimethylthiazol-2-yl)-2,5-diphenyltetrazolium bromide)) (Himedia Pvt. Ltd, India). In brief, this is a homogeneous, colorimetric method for determining the number of viable cells in proliferation, cytotoxicity or chemosensitivity assays. MTT is bio reduced by cells into a formazan product that is […]. After 72 h of compound treatment, the medium was removed and 100 μL of MTT (0.5 mg ml^−1 in media) was added to the cells and kept in the dark for 3 h at 37 °C in the CO2 incubator and the formazan formed was dissolved in 100 μL DMSO (Dimethyl Sulfoxide). The absorbance of the formazan product at 595 nm was measured directly from 96-well assay plates without additional processing using a multimode plate reader (Bio-Rad) (iMark, India), as absorbance is directly proportional to the number of viable cells in culture. The percentage of viable cells in each group is determined with respect to the untreated control cells.

[2] = target: T1, COX-2 enzyme (Homo sapiens, UniProt P35354); experiment: Fluorescence-based COX-2 inhibitor screening assay; type: biochemical
T1 construct: purchased Bio Vision (BioVision), USA K547 / k547–100
T1 sequence (P35354 18-604): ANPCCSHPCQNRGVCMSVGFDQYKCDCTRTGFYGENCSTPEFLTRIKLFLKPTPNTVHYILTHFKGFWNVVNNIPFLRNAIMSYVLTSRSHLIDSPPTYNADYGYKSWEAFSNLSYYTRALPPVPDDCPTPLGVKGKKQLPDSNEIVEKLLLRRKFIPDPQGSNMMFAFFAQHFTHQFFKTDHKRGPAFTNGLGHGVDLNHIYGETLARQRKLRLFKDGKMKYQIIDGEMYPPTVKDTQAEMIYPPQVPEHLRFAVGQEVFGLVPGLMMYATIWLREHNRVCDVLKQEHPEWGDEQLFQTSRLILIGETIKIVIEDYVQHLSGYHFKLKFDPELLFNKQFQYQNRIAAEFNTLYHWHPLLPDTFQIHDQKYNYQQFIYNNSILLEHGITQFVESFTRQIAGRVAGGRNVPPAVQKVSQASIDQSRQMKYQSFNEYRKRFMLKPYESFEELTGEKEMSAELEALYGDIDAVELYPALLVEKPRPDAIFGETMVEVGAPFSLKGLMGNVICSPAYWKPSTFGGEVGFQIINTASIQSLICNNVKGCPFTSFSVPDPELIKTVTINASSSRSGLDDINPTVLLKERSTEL
Protocol: In this method we detect the fluorescence compound PGG2 which can easily be analysed with an excitation wavelength of 540 nm and emission wavelength of 590 nm. The result of COX-2 inhibitory activity has been summarised in Table 5 at two different concentrations.
Assay for cyclooxygenases (COXs) inhibition for COX-2 activity was determined by a fluorescence-based method using a COX-2 inhibitor screening assay kit (Bio vision, catalog # k547–100, S. millipitas Blvd, USA) in a total volume of 100 μL according to the directions provided with the kit manufacturer. The inhibitory activities of the tested compounds were based on the fluorometric detection of Prostaglandin G2 the intermediate product generated by the COX enzyme. The enzymes were preincubated for 5 min at 25 °C with the test compounds prior to addition of arachidonic acid. Celecoxib was used as positive control. Fluorescence was measured (Ex/Em = 540/590 nm) kinetically at 25 °C for 5–10 minutes. Two time point was chosen in the linear range of the plot and obtained the corresponding values (RFU1 and RFU2) The COX-2 inhibitory activity was calculated according to the equation. % Relative inhibition = Slope of EC − Slope of S/Slope of EC × 100. Where EC is the enzyme control and S is sample screen and slope of all the sample is calculated by dividing the net ΔRFU(RFU2 − RFU1) values by the ΔT (T2 − T1).

[3] = test system: MDA-MB-453 cells; experiment: MTT cell viability assay in MDA-MB-453 cells; type: cell-based; details: Homo sapiens, read-out: Cell Viability (%) ± SD; for viability at 1 µM: MDA-MB-453, 1 µM; for viability at 10 µM: MDA-MB-453, 10 µM; for viability at 25 µM: MDA-MB-453, 25 µM
Source text: as §1

inhibition at 25 µM [2] [%]	inhibition at 50 µM [2] [%]	Structure (SMILES)	viability at 72 h, 25 µM [1] [%]	viability at 72 h, 50 µM [1] [%]	viability at 72 h, 100 µM [1] [%]	viability at 1 µM [3] [%]	viability at 10 µM [3] [%]	viability at 25 µM [3] [%]
25	71	O=C(/C=C/c1c[nH]c2ccccc12)C[C@@H]1O[C@H](CO)[C@@H](O)[C@H](O)[C@H]1O [Compound 9, (E)-4-(1H-indol-3-yl)-1-((2S,3R,4R,5S,6R)-3,4,5-trihydroxy-6-(hydroxymethyl)tetrahydro-2H-pyran-2-yl)but-3-en-2-one]	87.6 ± 1.5	81.3 ± 2.9	84.2 ± 3	80.6 ± 8	76.4 ± 5.4	96.1 ± 35.7
13.7	39	O=C(/C=C/c1c[nH]c2ccc(Cl)cc12)C[C@@H]1O[C@H](CO)[C@@H](O)[C@H](O)[C@@H]1O [Compound 20, (E)-4-(5-chloro-1H-indol-3-yl)-1-((2S,3S,4R,5S,6R)-3,4,5-trihydroxy-6-(hydroxymethyl)tetrahydro-2H-pyran-2-yl)but-3-en-2-one]	85.8 ± 5.3	78.8 ± 3	36.5 ± 3.4	105 ± 8.1	74.8 ± 1.5	66.4 ± 3.2
6.7	27	OC[C@H]1O[C@@H](CC2=NNC(c3c[nH]c4ccccc34)C2)[C@H](O)[C@@H](O)[C@H]1O (stereo partly drawn) [Compound 25, (2 S,3 R,4 R,5 R,6 R)-2-((5-(1H-indol-3-yl)-4,5-dihydro-1H-pyrazol-3-yl)methyl)-6-(hydroxy-methyl)tetrahydro-2H-pyran-3,4,5-triol]	87.6 ± 2.2	84.6 ± 1.7	82.4 ± 2.6	88.8 ± 5.2	78.3 ± 4.7	69.6 ± 5.3
4.9	59	O=[N+]([O-])c1ccc2[nH]cc(-c3cc(C[C@@H]4O[C@H](CO)[C@@H](O)[C@H](O)[C@H]4O)no3)c2c1 [Compound 34, (2 R,3 S,4 R,5 R,6 S)-2-(hydroxymethyl)-6-((5-(5-nitro-1H-indol-3-yl)isoxazol-3-yl)methyl) tetrahydro-2H-pyran-3,4,5-triol]	87.6 ± 1.5	80.1 ± 2.8	84.2 ± 3	92.5 ± 4.6	80.9 ± 1.2	66.8 ± 1.7
	95	OC[C@H]1O[C@@H](Cc2cc(-c3c[nH]c4ccccc34)on2)[C@H](O)[C@@H](O)[C@H]1O [Compound 37, (2 S,3 R,4 R,5 R,6 R)-2-((5-(1H-indol-3-yl)isoxazol-3-yl)methyl)-6-(hydroxymethyl) tetrahydro-2H-pyran-3,4,5-triol]	86.8 ± 2.8	83.2 ± 5.8	81 ± 1.5	95.4 ± 4.8	76.4 ± 5.4	96.1 ± 35.7
